Consider one substance from patent publication US11896704B2, “Compounds useful for the treatment and/or care of the skin, hair, nails and/or mucous membranes” (LUBRIZOL ADVANCED MATERIALS, INC., priority 2017, dated 2024).

What all share (format): cell-based
The subject of one experiment is JARID1A protein (KDM5A). As to the kind of experiment: JARID1A protein level in synchronized human keratinocytes (HaCaT), ELISA normalized to total protein. As to conditions: 0.5 mg/ml, 7:30 hours, mean of at least six assays. On the procedure:
In Vitro Study of JARID1A Protein Increase Protein Level by the Peptide […] (PEP-1, H-[SEQ ID. NO. 2]-NH2) on Synchronized Human Keratinocytes Using an ELISA Assay Based on Colorimetric Detection. HaCaT cells (human keratinocyte cell line, Deutsches Krebsforschungszentrum) are seeded at a density of 200.000 cells/well (2 wells per condition) in 12-well plates. Cells are seeded in culture medium Dulbecco's Modified Eagle Medium high GlutamaxTM (Fisher Scientific) supplemented with 10% (volume/volume) Fetal Bovine Serum (Cultek). […] Nuclear extracts are assayed to quantify the level of JARID1A protein and total protein concentration. JARID1A protein is quantified using an enzyme linked immunosorbent assay (Human lysine-specific demethylase 5A (KDM5A) (CUSABIO) according to the manufacturer's protocol. In brief, JARID1A protein is detected with the antibodies provided in the kit and quantified by a colorimetric reaction. Absorbance quantification is carried out by using a microplate reader (ClarioStar®, BMG) set to 450 nm and 570 nm. For wavelength correction, readings at 570 nm were subtracted from readings at 450 nm. Total protein concentration of cell lysate is determined by using Pierce BCA Protein Assay Kit (Thermo Scientific). […] After 30 minutes of incubation at 60° C., the change in colour is measured with the absorbance microplate reader (Clariostar®, BMG) at 562 nm. […]
(In an ELISA, binding on a coated surface is turned into a signal by an enzyme label.)

Experiment [1] deals with mitochondrial complex I (NADH dehydrogenase). The experiment in a line: Mitochondrial complex I activity in human dermal fibroblasts, colorimetric assay. As to conditions: HDFa, 48 hours. The protocol:
Inhibition of Mitochondrial Complex I Activity Using an Assay Based on Colorimetric Detection. Human Dermal Fibroblasts from adult (HDFa, Life Technologies) are seeded at a density of 750.000 cells/75 cm^2 flask (one flask per condition) in culture medium M106 with Low Serum Growth Supplement (Life Technologies). Cells are grown during 8 days at 37° C. in 5% CO2 humidified air. Then, medium is removed and cells are treated with scalar dilutions of the peptide […] (PEP-1, H-[SEQ ID. NO. 2]-NH2) at 1, 0.5 and 0.1 mg/ml in culture medium during 48 hours at 37° C. in 5% CO2 humidified air. Non-treated cells incubated in culture medium alone are used as basal conditions. […] After 48 hours of treatment, cells are detached using trypsin and resuspended in 60 ul of Phosphate buffer saline (Sigma). Total protein concentration is measured by a Pierce BCA Protein Assay Kit (BCA Assay, Thermo Scientific) following manufacturer's protocol to adjust the final protein concentration between 700-1000 ug/ml. Briefly, standards and samples are dispensed and Working Reagent is added to the samples. After 30 minutes of incubation at 37° C., absorbance is measured with a microplate reader (Clariostar®, BMG) at 562 nm. Mitochondrial complex I activity is measured with Complex I enzyme activity microplate assay Kit (Abcam) according to the manufacture's protocol. This assay follows the oxidation of NADH to NAD coupled to the reduction of a specific colorimetric dye, leading to an increase in absorbance at 450 nm. In brief, 200 ul of each sample (adjusted to 700-1000 ug/ml of total protein amount) is incubated for 3 hours. After that, wells are washed several times and incubated with Assay Solution provided with the kit (composed by NADH and the specific dye). For the determination of mitochondrial complex I activity, colorimetric increase of Optical Density (OD) at 450 nm in a kinetic reaction along 1 hour is measured with a microplate reader (Clariostar©, BMG). Results are calculated as the rate of increase in OD at 450 nm between two points in the linear zone over time. The percentage of mitochondrial complex I activity relative to basal conditions after the treatment with […] (PEP-1, H-[SEQ ID. NO. 2]-NH2) is represented in Table 9. These values represent the mean for at least three independent assays.

The subject of experiment [2] is Human Dermal Fibroblasts (HDFa). The experiment in a line: Mitochondrial membrane potential in HDFa, JC-1 fluorescence assay. As to conditions: 0.5 mg/ml, 16 hours. On the procedure:
In Vitro Study of Increasing the Mitochondrial Membrane Potential in Human Dermal Fibroblasts (HDFa) by an Immunofluorescence Assay.
Human Dermal Fibroblasts from adult (HDFa, Life Technologies) are seeded at a density of 6,000 cells/well (3 wells per condition) in 96-well plates. Cells are seeded in culture medium M106 with Low Serum Growth Supplement (Life Technologies) during 24 hours at 37° C. in 5% CO2 humidified air. […]. Non-treated cells incubated with medium alone are used as basal conditions.
After 16 hours of treatment, cells are used to quantify mitochondria membrane potential by using JC-1 mitochondrial membrane potential assay kit (Abcam) according to the manufacturer's protocol. Briefly, cells are incubated with a JC-1 working solution prepared with Supplemented Dilution Buffer in the presence of the treatment with the peptide at 0.5 mg/ml at 37° C. 5% CO2 for 30 minutes. […]
Cells are imaged and mitochondrial membrane potential is measured using Operetta® High Content Imaging System (PerkinElmer, Inc). […] Cell number is quantified by using Hoechst 33342 (ThermoFisher Scientific) staining, a cell-permeant nuclear counterstain that emits blue fluorescence at 460 nm when bound to dsDNA and is excited at 350 nm. For each image, intensity fluorescence from energized and depolarized cells is quantified and normalized against the number of nuclei. […]

Regarding “H-Phe-Trp-Met-Lys-Arg-Lys-Arg-Val-Pro-NH2 (H-FWMKRKRVP-NH2) [PEP-1]”, the “Percentage of JARID1A protein relative to basal condition (%)” value in the experiment with JARID1A protein (KDM5A) is recorded as 126.84%. Further, the “Percentage of mitochondrial complex I activity relative to basal condition (%)” value was 83.23% in experiment [1] (0.1 mg/mL), 71.68% in experiment [1] (0.5 mg/mL) and 55.35% in experiment [1] (1 mg/mL). Besides, the “Percentage of MMP relative to basal conditions (%)” value in experiment [2] is recorded as 130.98%.
